Biological target: T1, TSPO (Rattus norvegicus, UniProt P16257)
T1 construct: Thirty-three adult male Sprague–Dawley rats; from tissue; host or cells: living adult male Sprague-Dawley rats; heart, LV anterior wall, lung and brain VOIs
Test: PET/CT imaging and kinetic modelling in rat MI model, day 7
Type: in vivo
Set-up: k4 (2T analysis), mean / K1 (2T analysis), mean / k2 (2T analysis), mean / k3 (2T analysis), mean: unit not given here
Conditions: for K1 (2T analysis), mean / VT (2T analysis), mean / k2 (2T analysis), mean / k3 (2T analysis), mean / k3/k4 (2T analysis), mean / k4 (2T analysis), mean: MI n = 9
Method: For MI studies, anesthesia was induced and maintained using isoflurane (0.5%–3% in oxygen, 1 L/min) before buprenorphine (0.05 mg/kg; Alstoe Ltd.) was administered preoperatively for analgesia. Tracheal intubation was achieved under direct vision, and ventilation was maintained with a rodent ventilator (model 683 [Harvard Apparatus]; tidal volume, 2.5 cm^3; respiratory rate, 60/min). MI was induced as we have previously described ([18]), and further details can be found in the supplemental materials. Animals were imaged within 1 d of day 7 after MI, referred to as day 7 throughout the article.
Thirty-two PET scans were performed with ^18F-LW223 (17.8 ± 1.5 MBq, intravenous bolus, mean ± SEM). Naïve and MI rat scans were acquired immediately after intravenous bolus injection of ^18F-LW223. […] Dosimetry studies were conducted using mice and 240-min PET scans.
Reconstructed scans were imported into PMOD, version 3.8 (PMOD Technologies). Volumes of interest (VOIs) were manually drawn around the brain, heart, and lung using CT images. To sample the infarct area (or an equivalent area in naïve hearts), averaged PET images (0–120 min) were used to place 3 spheric VOIs at the center of the infarct territory within the ventricular wall (1.5 mm^3). […] Time–activity curves were generated, and SUVs were calculated as concentration in the VOI divided by injected dose divided by animal weight. Kinetic modeling was performed using the 2-tissue-compartment model to estimate the kinetic rate constants K1–k4 and the total volume of distribution (VT) in different tissues. Blood volume fraction (VB) was not modeled in this study. Two-tissue-compartment modeling was selected as the preferred model on the basis of a comparison of goodness and robustness of fitting versus several other models (Supplemental Fig. 3; Supplemental Table 2). The binding potential relative to nondisplaceable volume (BPND) was defined as k3/k4 ([19]). The transfer-corrected BPND, termed BPTC, was formulated as follows:Eq. 1 BPTC=k3/k4÷K1, […]
where k3 is the radiotracer association rate with specific binding, k4 is the dissociation rate constant of target ligand, and K1 is the rate constant for transfer from arterial plasma to tissues. When tissue blood flow is impaired, such as after MI, K1→blood flow, as per the Renkin–Crone equation:Eq. 2 K1=F×E=F (1−e^− PS/F), […]
Invasive Input Function Measurement
Polyethylene catheters (PE50) filled with heparinized saline (20 IU/mL) were inserted into the left femoral artery and vein with the help of a stereomicroscope and securely fastened with ligatures (6-0 silk thread). Catheters were held in place with […]
Rat Myocardial Infarction Procedure
Briefly, the skin was incised at the level of the left third and fourth ribs where the pectoral muscles were divided and retracted. Left lateral thoracotomy was then performed. With minimal handling, the pericardium was ruptured and the heart gently exteriorized from the thorax, and a nonabsorbable 5-0 ligature was placed around the left anterior descending coronary artery just above the bifurcation of the first diagonal and maneuvered back into position. Before wound closure, a drain was inserted to assist with removal of air and fluid from the thorax. Once removed, the wound was then closed in three layers. Animals were recovered and extubated once spontaneous ventilation was established, housed at 30 °C for 24 hours and given sterile sodium chloride 0.9% 0.01 mL/g fluid therapy subcutaneously in addition to another dose of Buprenorphine. After 24 hours, normal housing conditions were resumed.
Radiometabolite Blood and Tissue Processing and Analysis
All blood samples were 1 mL each and manually collected from different animals to generate a population curve, in order to respect total blood volume limits for terminal arterial blood collections in rats. Following blood and tissue collection, all samples were […]

K1 (2T analysis), mean (Brain): 0.17
VT (2T analysis), mean (Brain): 2.21
k2 (2T analysis), mean (Brain): 0.19
k3 (2T analysis), mean (Brain): 0.023
k3/k4 (2T analysis), mean (Brain): 1.42
k4 (2T analysis), mean (Brain): 0.02
K1 (2T analysis), mean (Global Heart): 0.58
VT (2T analysis), mean (Global Heart): 12.57
k2 (2T analysis), mean (Global Heart): 0.36
k3 (2T analysis), mean (Global Heart): 0.04
k3/k4 (2T analysis), mean (Global Heart): 6.62
k4 (2T analysis), mean (Global Heart): 0.01
K1 (2T analysis), mean (LV Anterior Wall): 0.25
VT (2T analysis), mean (LV Anterior Wall): 13.62
k2 (2T analysis), mean (LV Anterior Wall): 0.18
k3 (2T analysis), mean (LV Anterior Wall): 0.025
k3/k4 (2T analysis), mean (LV Anterior Wall): 7.92
k4 (2T analysis), mean (LV Anterior Wall): 0.01
K1 (2T analysis), mean (Lung): 1.08
VT (2T analysis), mean (Lung): 10.43
k2 (2T analysis), mean (Lung): 0.39
k3 (2T analysis), mean (Lung): 0.046
k3/k4 (2T analysis), mean (Lung): 2.49
k4 (2T analysis), mean (Lung): 0.02
BPTC (MI cohort, infarct territory of anterior wall, 7 d after MI): 32.7 ± 5.0 cm^3/mL/min
reduction of K1 in LV anterior wall, MI vs naïve (rat, in vivo): 3.6 fold
reduction of k2 in LV anterior wall, MI vs naïve (rat, in vivo): 1.4 fold
SMILES: CC[C@@H](C)N(C)C(=O)c1nc2ccccc2c(-c2ccccc2)c1C[18F] [^18F-LW223]
